According to PubChem BioAssay (NCI):
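Step 1: Grow cells in 96-well plates. Step 2: Expose to compound for 48 hours at 5 concentrations. Step 3: Interpolate endpoints linearly; if unreached, use highest concentration. TGI: concentration producing complete growth inhibition.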

Assays:
Assay in all cases: growth of human tumour cells (NCI), 48 h
MOLT-4 leukemia = tested on: MOLT-4 leukemia
MDA-MB-435 = tested on: MDA-MB-435
SK-MEL-28 melanoma = tested on: SK-MEL-28 melanoma
A549 NSCLC = tested on: A549 NSCLC
SK-MEL-2 melanoma = tested on: SK-MEL-2 melanoma
MALME-3M melanoma = tested on: MALME-3M melanoma
SK-OV-3 ovarian = tested on: SK-OV-3 ovarian
OVCAR-4 ovarian = tested on: OVCAR-4 ovarian
HS 578T breast = tested on: HS 578T breast
OVCAR-8 ovarian = tested on: OVCAR-8 ovarian
TK-10 renal = tested on: TK-10 renal
HL-60(TB) leukemia = tested on: HL-60(TB) leukemia
HCC-2998 colon = tested on: HCC-2998 colon
NCI/ADR-RES ovarian = tested on: NCI/ADR-RES ovarian
SF-539 CNS = tested on: SF-539 CNS
IGROV1 ovarian = tested on: IGROV1 ovarian
SN12C renal = tested on: SN12C renal
SW-620 colon = tested on: SW-620 colon
HOP-92 NSCLC = tested on: HOP-92 NSCLC
EKVX NSCLC = tested on: EKVX NSCLC
MDA-N = tested on: MDA-N
ACHN renal = tested on: ACHN renal
HT29 colon = tested on: HT29 colon
NCI-H226 lung = tested on: NCI-H226 lung
NCI-H460 lung = tested on: NCI-H460 lung
UACC-257 melanoma = tested on: UACC-257 melanoma
HCT-15 colon = tested on: HCT-15 colon
SK-MEL-5 melanoma = tested on: SK-MEL-5 melanoma
OVCAR-5 ovarian = tested on: OVCAR-5 ovarian
MCF7 breast = tested on: MCF7 breast
SF-295 CNS = tested on: SF-295 CNS
DU-145 prostate = tested on: DU-145 prostate
NCI-H23 lung = tested on: NCI-H23 lung
COLO 205 colon = tested on: COLO 205 colon
HCT-116 colon = tested on: HCT-116 colon
T-47D breast = tested on: T-47D breast
K-562 leukemia = tested on: K-562 leukemia
UO-31 renal = tested on: UO-31 renal
SNB-19 CNS = tested on: SNB-19 CNS
BT-549 breast = tested on: BT-549 breast
NCI-H522 lung = tested on: NCI-H522 lung
RPMI-8226 leukemia = tested on: RPMI-8226 leukemia
MDA-MB-231 breast = tested on: MDA-MB-231 breast
U251 CNS = tested on: U251 CNS
PC-3 prostate = tested on: PC-3 prostate
SF-268 CNS = tested on: SF-268 CNS
A498 renal = tested on: A498 renal
HOP-62 NSCLC = tested on: HOP-62 NSCLC
UACC-62 melanoma = tested on: UACC-62 melanoma
786-0 renal = tested on: 786-0 renal
CAKI-1 renal = tested on: CAKI-1 renal
CCRF-CEM leukemia = tested on: CCRF-CEM leukemia
M14 melanoma = tested on: M14 melanoma
KM12 colon = tested on: KM12 colon
RXF 393 renal = tested on: RXF 393 renal
SR leukemia = tested on: SR leukemia
OVCAR-3 ovarian = tested on: OVCAR-3 ovarian
LOX IMVI melanoma = tested on: LOX IMVI melanoma

Measured: TGI

Cn1ncc(NCCn2cnc3c2c(=O)n(C)c(=O)n3C)c(Cl)c1=O
> 100 µM: all assays above
